# Values quoted from earlier work, collected in publication PMC3187562 (ACS medicinal chemistry letters, 2011).
# What was measured:
# ΔF508-CFTR [1] = conditions: Phase 2a clinical study, CF patients
# ΔF508-CFTR [2] = conditions: CF lung cell line expressing ΔF508-CFTR from a viral promoter
structure (smiles),measurement,setting,value
Cc1ccc(NC(=O)C2(c3ccc4c(c3)OC(F)(F)O4)CC2)nc1-c1cccc(C(=O)O)c1 [VX-809],sweat chloride levels (key biomarker),ΔF508-CFTR [1],reduced sweat chloride levels
"CC(/C=C/C(=O)NO)=C\[C@@H](C)C(=O)c1ccc(N(C)C)cc1 [compound 1, trichostatin A]",increase of ΔF508-CFTR mRNA levels,ΔF508-CFTR [2],> 15 fold
"O=C(CCCCCCC(=O)Nc1ccccc1)NO [compound 2, vorinostat]",increase of ΔF508-CFTR mRNA levels,ΔF508-CFTR [2],> 15 fold
same,increase of ΔF508-CFTR protein levels,ΔF508-CFTR [2],25 fold
C/C=C1\NC(=O)[C@H]2CSSCC/C=C/[C@H](CC(=O)N[C@H](C(C)C)C(=O)N2)OC(=O)[C@H](C(C)C)NC1=O [romidepsin],expression of HDAC7 in treated cells,HDAC7,selectively down-regulated
